Like-named read-outs stand apart in the source and are kept apart here.
Legend:
Kv4.3 = Kv4.3 (Homo sapiens, UniProt Q9UK17); assay: Ion channel selectivity patch clamp; format: cell-based; settings: Voltage (+40 mV)
range of ion channels = assay: Ion channel selectivity panel, whole-cell manual patch clamp; format: cell-based; settings: at 1.9 μM
[1] = Brain homogenate assay (unbound fraction in brain); format: in vitro ADME; settings: rat
Protocol: Frozen rat brains were homogenized in PBS buffer (dilution factor D = 4). The homogenate was spiked with test compounds (1 μM final concentration, final concentration of DMSO was 0.1%) and subsequently dialyzed against PBS buffer for 8 hrs at 37°C in rapid equilibrium dialysis cells (RED-device, Pierce). At the end of the dialysis period, the dialysate was transferred into reaction tubes and mixed with an analytical internal standard. Tissue homogenate was added to buffer samples and buffer was added to tissue samples to ensure identical matrix composition for bioanalytical measurement. After protein precipitation using acetonitrile, samples were measured by LC-MS/MS. The free fraction was calculated as fu,app = (CPBS/Chomogenate). Since the brains were homogenized in the buffer, the observed free fraction values (fu,app) were extrapolated to the fractions unbound in the brain (fu*) based on the dilution (D) using the following formula: fu*=(1/D)/((1/fu,app−1)+1/D).

tyrosine hydroxylase = target: T1, tyrosine hydroxylase (Rattus norvegicus, UniProt P04177); assay: enzyme assay; format: biochemical; settings: 1.0E-06 M
T1 construct: rat striatum; from tissue; host or cells: rat striatum
T1 sequence (P04177 whole entry): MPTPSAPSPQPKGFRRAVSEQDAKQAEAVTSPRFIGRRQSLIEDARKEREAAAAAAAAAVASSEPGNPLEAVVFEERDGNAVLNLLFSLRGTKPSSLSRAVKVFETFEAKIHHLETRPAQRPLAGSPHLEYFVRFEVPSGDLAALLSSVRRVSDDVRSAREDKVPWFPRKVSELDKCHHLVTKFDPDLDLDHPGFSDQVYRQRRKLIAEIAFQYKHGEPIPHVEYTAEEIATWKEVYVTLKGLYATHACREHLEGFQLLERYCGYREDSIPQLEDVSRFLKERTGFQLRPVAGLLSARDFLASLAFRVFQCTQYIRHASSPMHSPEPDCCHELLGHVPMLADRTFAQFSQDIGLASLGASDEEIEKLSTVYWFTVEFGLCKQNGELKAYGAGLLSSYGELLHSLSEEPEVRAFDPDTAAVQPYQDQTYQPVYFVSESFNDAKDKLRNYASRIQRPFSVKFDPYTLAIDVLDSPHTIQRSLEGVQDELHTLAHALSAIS

SKCa channel = format: binding, rat; settings: 1.0E-06 M
Ca2+ channel (N) = Ca2+ channel (N) (Rattus norvegicus, UniProt Q02294); assay: biochemical; format: binding
hTRPC5 = target: T2, hTRPC5 (Homo sapiens, UniProt Q9UL62); assay: Whole-cell manual patch clamp; format: cell-based
T2 construct: The cDNAs for various full-length ion channels were subcloned into pcDNA5/TO; expressed in transfected cells
T2 sequence (Q9UL62 whole entry): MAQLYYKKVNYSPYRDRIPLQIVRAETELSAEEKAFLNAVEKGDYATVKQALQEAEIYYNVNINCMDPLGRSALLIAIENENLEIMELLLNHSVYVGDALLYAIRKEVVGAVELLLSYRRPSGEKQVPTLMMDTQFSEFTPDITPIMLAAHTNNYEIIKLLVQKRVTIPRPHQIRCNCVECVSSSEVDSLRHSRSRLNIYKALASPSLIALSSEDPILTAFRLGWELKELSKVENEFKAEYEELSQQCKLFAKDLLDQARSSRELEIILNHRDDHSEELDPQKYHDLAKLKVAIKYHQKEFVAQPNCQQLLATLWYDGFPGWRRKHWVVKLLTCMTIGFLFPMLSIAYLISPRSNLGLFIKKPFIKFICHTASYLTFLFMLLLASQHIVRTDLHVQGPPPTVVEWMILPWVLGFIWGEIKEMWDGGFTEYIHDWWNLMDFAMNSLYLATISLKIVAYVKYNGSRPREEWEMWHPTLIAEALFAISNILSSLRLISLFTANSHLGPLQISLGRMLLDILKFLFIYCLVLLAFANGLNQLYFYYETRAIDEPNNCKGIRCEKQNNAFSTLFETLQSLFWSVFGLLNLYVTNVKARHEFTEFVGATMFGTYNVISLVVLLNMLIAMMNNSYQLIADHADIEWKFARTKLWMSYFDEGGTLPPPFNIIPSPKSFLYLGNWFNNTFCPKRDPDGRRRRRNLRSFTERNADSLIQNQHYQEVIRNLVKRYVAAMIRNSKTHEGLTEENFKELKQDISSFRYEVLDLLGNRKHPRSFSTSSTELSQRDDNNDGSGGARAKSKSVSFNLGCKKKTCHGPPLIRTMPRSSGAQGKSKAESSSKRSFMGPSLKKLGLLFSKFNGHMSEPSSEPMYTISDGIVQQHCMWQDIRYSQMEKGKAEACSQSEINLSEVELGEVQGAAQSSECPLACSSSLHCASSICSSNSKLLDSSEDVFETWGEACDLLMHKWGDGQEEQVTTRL

p38α kinase (h) = p38α kinase (h) (Homo sapiens, UniProt Q16539); assay: enzyme assay; format: biochemical; settings: 1.0E-06 M
Chain of p38α kinase (h) (Q16539 whole entry): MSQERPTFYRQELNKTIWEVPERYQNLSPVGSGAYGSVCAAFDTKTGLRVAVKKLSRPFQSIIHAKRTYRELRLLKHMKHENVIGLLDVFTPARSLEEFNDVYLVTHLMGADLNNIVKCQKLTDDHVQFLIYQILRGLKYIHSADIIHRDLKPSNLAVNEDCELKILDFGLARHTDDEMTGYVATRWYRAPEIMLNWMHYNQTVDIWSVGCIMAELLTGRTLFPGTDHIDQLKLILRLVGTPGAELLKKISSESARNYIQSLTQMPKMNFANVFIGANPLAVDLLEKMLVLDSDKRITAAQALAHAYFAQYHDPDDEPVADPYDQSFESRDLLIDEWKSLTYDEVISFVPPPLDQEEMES

β2 (h) = β2 (h) (Homo sapiens, UniProt P07550); format: binding; settings: 1.0E-06 M
Chain of β2 (h) (P07550 whole entry): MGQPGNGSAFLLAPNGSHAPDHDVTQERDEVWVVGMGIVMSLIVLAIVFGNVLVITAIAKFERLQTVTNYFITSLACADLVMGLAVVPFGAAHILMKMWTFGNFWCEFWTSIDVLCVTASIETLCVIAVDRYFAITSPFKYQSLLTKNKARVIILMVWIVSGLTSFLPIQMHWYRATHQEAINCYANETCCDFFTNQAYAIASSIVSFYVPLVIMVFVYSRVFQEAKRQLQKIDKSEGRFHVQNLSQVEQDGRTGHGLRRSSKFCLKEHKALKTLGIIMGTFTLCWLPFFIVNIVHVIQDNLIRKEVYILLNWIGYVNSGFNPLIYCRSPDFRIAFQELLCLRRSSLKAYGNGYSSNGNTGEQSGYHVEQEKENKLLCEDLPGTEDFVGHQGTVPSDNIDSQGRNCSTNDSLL

M3 (h) = M3 (h) (Homo sapiens, UniProt P20309); assay: biochemical
Chain of M3 (h) (P20309 whole entry): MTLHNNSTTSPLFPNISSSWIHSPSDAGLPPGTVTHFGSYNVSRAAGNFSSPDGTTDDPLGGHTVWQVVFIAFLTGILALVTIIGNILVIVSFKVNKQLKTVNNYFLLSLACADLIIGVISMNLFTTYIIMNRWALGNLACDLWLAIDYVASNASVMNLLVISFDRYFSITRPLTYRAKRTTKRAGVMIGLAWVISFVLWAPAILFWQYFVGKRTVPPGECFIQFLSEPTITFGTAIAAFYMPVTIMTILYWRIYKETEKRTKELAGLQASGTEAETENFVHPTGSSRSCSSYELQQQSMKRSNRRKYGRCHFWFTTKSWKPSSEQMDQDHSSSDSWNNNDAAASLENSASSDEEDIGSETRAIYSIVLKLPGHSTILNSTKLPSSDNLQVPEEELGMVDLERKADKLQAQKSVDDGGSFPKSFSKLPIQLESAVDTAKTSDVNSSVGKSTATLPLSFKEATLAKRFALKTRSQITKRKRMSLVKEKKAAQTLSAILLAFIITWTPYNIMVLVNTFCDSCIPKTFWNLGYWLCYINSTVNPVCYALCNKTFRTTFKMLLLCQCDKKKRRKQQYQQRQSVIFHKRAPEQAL

MMP-9 (h) = MMP-9 (h) (Homo sapiens, UniProt P14780); assay: biochemical; format: biochemical; settings: 1.0E-06 M
Chain of MMP-9 (h) (P14780 94-707): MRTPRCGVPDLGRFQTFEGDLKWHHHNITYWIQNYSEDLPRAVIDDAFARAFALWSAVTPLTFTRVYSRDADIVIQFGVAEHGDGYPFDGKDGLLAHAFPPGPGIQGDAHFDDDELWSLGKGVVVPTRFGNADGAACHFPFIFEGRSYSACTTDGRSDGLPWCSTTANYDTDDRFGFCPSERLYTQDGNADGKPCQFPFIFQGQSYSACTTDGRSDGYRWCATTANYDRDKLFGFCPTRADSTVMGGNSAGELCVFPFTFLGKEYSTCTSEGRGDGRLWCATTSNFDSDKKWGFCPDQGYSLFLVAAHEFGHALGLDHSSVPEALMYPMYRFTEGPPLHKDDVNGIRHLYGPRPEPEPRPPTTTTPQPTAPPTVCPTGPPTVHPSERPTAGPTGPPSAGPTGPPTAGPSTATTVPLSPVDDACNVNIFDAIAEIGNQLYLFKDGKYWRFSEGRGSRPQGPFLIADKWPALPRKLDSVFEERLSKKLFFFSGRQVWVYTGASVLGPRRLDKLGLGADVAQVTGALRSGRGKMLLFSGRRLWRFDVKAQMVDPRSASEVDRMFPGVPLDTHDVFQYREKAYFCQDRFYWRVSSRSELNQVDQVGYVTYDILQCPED

β1 (h) = target: T3, β1 (h) (Homo sapiens, UniProt P08588); format: binding; settings: 1.0E-06 M
T3 construct: host or cells: HEK-293 cells
T3 sequence (P08588 whole entry): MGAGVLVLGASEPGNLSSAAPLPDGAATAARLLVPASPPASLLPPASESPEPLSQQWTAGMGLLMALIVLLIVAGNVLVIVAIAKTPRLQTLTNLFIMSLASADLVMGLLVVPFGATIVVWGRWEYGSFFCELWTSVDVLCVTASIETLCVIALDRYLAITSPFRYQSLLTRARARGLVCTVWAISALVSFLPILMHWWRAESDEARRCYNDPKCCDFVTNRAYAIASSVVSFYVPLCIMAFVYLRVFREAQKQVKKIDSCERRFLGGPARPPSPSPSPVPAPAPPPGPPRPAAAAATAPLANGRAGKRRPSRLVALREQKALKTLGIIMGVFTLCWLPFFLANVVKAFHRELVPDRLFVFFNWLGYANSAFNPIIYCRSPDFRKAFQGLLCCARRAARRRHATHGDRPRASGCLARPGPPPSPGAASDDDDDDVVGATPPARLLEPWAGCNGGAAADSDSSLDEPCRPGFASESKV

CB2 (h) = target: T4, CB2 (h) (Homo sapiens, UniProt P34972); format: binding; settings: 1.0E-06 M
T4 construct: host or cells: CHO cells
T4 sequence (P34972 whole entry): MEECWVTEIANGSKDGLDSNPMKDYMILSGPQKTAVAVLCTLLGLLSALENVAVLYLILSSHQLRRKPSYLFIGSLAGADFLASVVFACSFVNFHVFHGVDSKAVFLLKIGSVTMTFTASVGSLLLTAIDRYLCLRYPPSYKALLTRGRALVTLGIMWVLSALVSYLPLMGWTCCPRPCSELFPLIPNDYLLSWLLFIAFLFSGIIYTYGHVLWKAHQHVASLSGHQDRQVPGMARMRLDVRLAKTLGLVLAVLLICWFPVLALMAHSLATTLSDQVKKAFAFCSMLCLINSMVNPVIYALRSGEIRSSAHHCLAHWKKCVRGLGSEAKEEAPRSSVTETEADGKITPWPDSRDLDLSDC

PPARγ (h) = target: T5, PPARγ (h) (Homo sapiens, UniProt P37231); format: binding
T5 construct: Cerep; host or cells: E. coli
T5 sequence (P37231 1-505): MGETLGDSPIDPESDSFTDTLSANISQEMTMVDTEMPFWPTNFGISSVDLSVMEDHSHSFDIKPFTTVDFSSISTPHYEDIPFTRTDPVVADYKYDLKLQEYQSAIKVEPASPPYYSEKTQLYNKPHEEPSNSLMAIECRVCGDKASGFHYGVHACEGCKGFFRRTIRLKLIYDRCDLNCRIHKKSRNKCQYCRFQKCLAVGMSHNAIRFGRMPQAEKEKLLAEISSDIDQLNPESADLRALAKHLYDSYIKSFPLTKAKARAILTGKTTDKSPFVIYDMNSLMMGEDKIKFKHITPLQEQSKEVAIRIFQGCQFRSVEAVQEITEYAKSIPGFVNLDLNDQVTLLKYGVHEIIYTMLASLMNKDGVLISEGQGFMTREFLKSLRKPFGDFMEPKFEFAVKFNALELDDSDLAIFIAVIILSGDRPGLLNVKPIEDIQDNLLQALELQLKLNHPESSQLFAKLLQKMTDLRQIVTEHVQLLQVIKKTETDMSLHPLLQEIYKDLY

MC1 = target: T6, MC1 (Mus musculus, UniProt Q01727); format: binding; settings: 1.0E-06 M
T6 construct: (endogenous); host or cells: B16-F1 cells
T6 sequence (Q01727 whole entry): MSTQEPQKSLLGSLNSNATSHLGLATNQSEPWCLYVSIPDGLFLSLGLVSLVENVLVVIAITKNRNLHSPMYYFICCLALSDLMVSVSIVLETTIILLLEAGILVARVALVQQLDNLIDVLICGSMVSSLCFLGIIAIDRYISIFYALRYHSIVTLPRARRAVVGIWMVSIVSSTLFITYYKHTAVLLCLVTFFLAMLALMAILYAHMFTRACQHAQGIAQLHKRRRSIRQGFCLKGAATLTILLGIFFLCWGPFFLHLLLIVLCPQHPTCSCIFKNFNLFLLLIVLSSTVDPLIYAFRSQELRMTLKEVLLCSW

TNF-α (h) = format: binding, human; settings: 1.0E-06 M
ETB (h) = target: T7, ETB (h) (Homo sapiens, UniProt P24530); format: binding
T7 construct: host or cells: CHO cells
T7 sequence (P24530 27-442): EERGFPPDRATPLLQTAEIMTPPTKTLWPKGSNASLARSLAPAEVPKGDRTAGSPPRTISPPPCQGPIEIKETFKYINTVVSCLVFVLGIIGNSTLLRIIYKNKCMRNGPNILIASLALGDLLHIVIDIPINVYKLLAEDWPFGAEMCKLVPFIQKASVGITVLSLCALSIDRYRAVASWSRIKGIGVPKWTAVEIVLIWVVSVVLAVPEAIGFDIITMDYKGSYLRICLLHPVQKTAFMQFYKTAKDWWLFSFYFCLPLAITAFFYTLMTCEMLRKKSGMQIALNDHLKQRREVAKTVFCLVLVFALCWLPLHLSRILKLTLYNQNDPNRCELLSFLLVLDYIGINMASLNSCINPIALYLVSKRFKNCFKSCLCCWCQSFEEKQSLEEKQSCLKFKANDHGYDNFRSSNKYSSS

H2 (h) = target: T8, H2 (h) (Homo sapiens, UniProt P25021); format: binding; settings: 1.0E-06 M
T8 construct: host or cells: CHO cells
T8 sequence (P25021 whole entry): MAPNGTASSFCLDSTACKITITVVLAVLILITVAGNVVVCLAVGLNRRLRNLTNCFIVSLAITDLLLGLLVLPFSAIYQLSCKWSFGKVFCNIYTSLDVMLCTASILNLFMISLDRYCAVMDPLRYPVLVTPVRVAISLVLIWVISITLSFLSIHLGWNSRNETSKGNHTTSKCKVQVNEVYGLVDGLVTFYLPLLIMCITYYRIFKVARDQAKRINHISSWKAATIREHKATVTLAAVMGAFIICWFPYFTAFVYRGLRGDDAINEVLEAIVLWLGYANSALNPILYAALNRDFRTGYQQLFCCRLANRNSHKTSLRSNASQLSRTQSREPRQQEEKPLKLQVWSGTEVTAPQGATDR

[2] = 1.0E-06 M, read-out: % Inhibition 2nd

## Cn1c(=O)n(CCCO)c(=O)c2c1nc(Oc1cccc(Cl)c1)n2Cc1ccc(Cl)cc1 [HC-070]
Kv4.3
  IC50: > 1900 nM
Range of ion channels
  inhibition in most cases: ≤ 50%
[1]; 8 h, 1 μM
  nonspecific tissue binding: > 99%
[1]; brain homogenate
  fraction unbound at 8 h, 1 μM: 0.0028 ± 0.0002
Tyrosine hydroxylase; read-out: % Inhibition 1st
  inhibition at 1 µM: -27.2%
Tyrosine hydroxylase; read-out: % Inhibition Mean
  inhibition at 1 µM: -23%

## Cn1c(=O)n(CCCO)c(=O)c2c1nc(Oc1cccc(OC(F)(F)F)c1)n2Cc1ccc(Cl)cc1 [HC-608]
SKCa channel
  % Inhibition 1st: -2.5%
  % Inhibition 2nd: -4.7%
  % Inhibition Mean: -3.6%
Ca2+ channel (N); read-out: % Inhibition 1st
  inhibition at 1 µM: -5.9%
Ca2+ channel (N); read-out: % Inhibition 2nd
  inhibition at 1 µM: -13.1%
Ca2+ channel (N); read-out: % Inhibition Mean
  inhibition at 1 µM: -9.5%
hTRPC5; 20 μM carbachol/M1R
  IC50: ~0.67 nM
hTRPC5; La3+ (80 μM)
  IC50: ~0.17 nM
p38α kinase (h)
  % Inhibition 1st: -0.9%
  % Inhibition 2nd: -1.2%
  % Inhibition Mean: -1.1%
β2 (h); read-out: % Inhibition 1st
  inhibition at 1 µM: -1.9%
β2 (h); read-out: % Inhibition 2nd
  inhibition at 1 µM: 0.5%
β2 (h); read-out: % Inhibition Mean
  inhibition at 1 µM: -0.7%
M3 (h); read-out: % Inhibition 1st
  inhibition at 1 µM: -9%
M3 (h); read-out: % Inhibition 2nd
  inhibition at 1 µM: -7.5%
M3 (h); read-out: % Inhibition Mean
  inhibition at 1 µM: -8.2%
MMP-9 (h); read-out: % Inhibition 1st
  inhibition at 1 µM: 8.7%
MMP-9 (h); read-out: % Inhibition 2nd
  inhibition at 1 µM: 17.2%
MMP-9 (h); read-out: % Inhibition Mean
  inhibition at 1 µM: 13%
β1 (h); read-out: % Inhibition 1st
  inhibition at 1 µM: -14.5%
β1 (h); read-out: % Inhibition 2nd
  inhibition at 1 µM: -1.8%
β1 (h); read-out: % Inhibition Mean
  inhibition at 1 µM: -8.1%
CB2 (h); read-out: % Inhibition 1st
  inhibition at 1 µM: 16.6%
CB2 (h); read-out: % Inhibition 2nd
  inhibition at 1 µM: 25.1%
CB2 (h); read-out: % Inhibition Mean
  inhibition at 1 µM: 20.9%
PPARγ (h); 1.0E-06 M, read-out: % Inhibition 1st
  inhibition at 1 µM: 6.7%
PPARγ (h); [2]
  inhibition at 1 µM: 16.2%
PPARγ (h); read-out: % Inhibition Mean
  inhibition at 1 µM: 11.5%
MC1; read-out: % Inhibition 1st
  inhibition at 1 µM: 1%
MC1; read-out: % Inhibition 2nd
  inhibition at 1 µM: -3.6%
MC1; read-out: % Inhibition Mean
  inhibition at 1 µM: -1.3%
TNF-α (h)
  % Inhibition 1st: 8.8%
  % Inhibition 2nd: -8.6%
  % Inhibition Mean: 0.1%
ETB (h); [2]
  inhibition at 1 µM: -0.1%
ETB (h); 1.0E-06 M, read-out: % Inhibition Mean
  inhibition at 1 µM: 12.7%
ETB (h); read-out: % Inhibition 1st
  inhibition at 1 µM: 25.5%
H2 (h); read-out: % Inhibition 1st
  inhibition at 1 µM: 1.1%
H2 (h); read-out: % Inhibition 2nd
  inhibition at 1 µM: 7.7%
H2 (h); read-out: % Inhibition Mean
  inhibition at 1 µM: 4.4%

Reference: publication PMC5791972 (PLoS ONE, 2018)
